# In patent publication US20070065366A1, “Pharmaceutical formulations comprising a long-acting beta2-agonist for administration by nebulisation” (Chiesi Farmaceutici S.p.A., priority 2005, published 2007):
# Experiments:
# [1] = First stability study of CHF 4226 solutions, pH 3.0 to 6.0 adjusted with different agents (HPLC); assay type: physicochemical; conditions: for stability (total impurities/degradation products): compared with not stable, higher than 5% after 1 month accelerated
# Procedure: Stability studies in different conditions of pH were carried out.
# The amount of the main degradation products and the total impurities and degradation products of CHF 4226 were determined by HPLC.
# Total impurities and degradation products comprise the starting impurities present in the drug, the main degradation products and other minor degradation products forming during storage.
# In a first study, the effect of the pH in a rather broad range comprised between 3.0 and 6.0 adjusted with different kind of agents was investigated.
# The different formulations were stored under long term (25° C., 60% R.H.) and accelerated (40° C., 75% R.H.) conditions for three months.
# [2] = Stability of CHF 4226 in aqueous solution, pH 4.0 to 5.5, buffers comprising citric acid at different concentrations (HPLC); assay type: physicochemical; conditions: pH interval between 4.0 and 5.0, 40° C., 75% R.H.
# Procedure: The chemical stability of CHF 4226 was then investigated in the pH interval comprised from 4.0 to 5.5 adjusted with buffers comprising citric acid at different concentrations.
# The different formulations were stored under accelerated conditions (40° C., 75% R.H.) for at least four months.
# Various liquid, propellant-free formulations comprising 0.001% w/v CHF 4226 were prepared according the procedure described in the Example 1 except that sodium chloride was not added in order to better appreciate the effect of the buffer concentration on the chemical stability.
# The pH was adjusted in the interval comprised between 4.0 and 5.5 with buffers consisting of different relative percentages of the citric acid/sodium citrate couple or the citric acid/dibasic sodium phosphate couple. Each formulation was distributed in 20 ml glass vials.
# The stability of the formulations was evaluated under accelerated conditions (40° C., 75% R.H.) for at least four months.
# The impurities/degradation products of CHF 4226 were determined by HPLC using the experimental conditions reported in the Example 2.
# [3] = cited from earlier work
Structure (SMILES),"chemical stability in aqueous solution ([1]; pH 4.5±0.1, citrate buffer about 19 mM, compared with other pH/agents, 25° C./60% R.H. and 40° C./75% R.H., three months)","stability (total impurities/degradation products) ([1]; phosphoric acid, pH 3.0)","stability (total impurities/degradation products) ([1]; phosphoric acid/phosphate buffer, pH 6.0)",chemical stability [2],"stability in solution ([3]; pH 4.0 to 6.0, acetate or acetate/phosphate buffer, protected from air)","effect of ferric ions on the auto-oxidation rate ([3]; presence of ferric ions, except the solution at pH 6.0 (acetate and phosphate buffer))","pH at which the lowest degradation rate was obtained ([3]; solutions at pH 4.0, 4.5, 5.0, 5.5 and 6.0)"
"COc1ccc(C[C@@H](C)NC[C@H](O)c2ccc(O)c3[nH]c(=O)ccc23)cc1 [CHF 4226, 8-hydroxy-5-[(1R)-1-hydroxy-2-[[(1R)-2-(4-methoxyphenyl)-1-methylethyl]amino]ethyl]-2(1H)-quinolinone]",chemically more stable,analogous behavior,analogous behavior,improved,–,–,–
CCC(NC(C)C)C(O)c1ccc(O)c2[nH]c(=O)ccc12 (stereo not shown) [procaterol],–,–,–,–,more stable at more acidic pHs,increased the auto-oxidation rate,4.0
